Test results as given in ChEMBL document CHEMBL4330071 (Eur J Med Chem, 2019).

Legend:
[1] = target: Vascular endothelial growth factor receptor 2 (Homo sapiens, UniProt P35968); assay: Inhibition of human KDR assessed as residual activity at 10 uM using poly[Glu:Tyr] (4:1) as substrate preincubated for 20 mins followed by [gamma-33P]-ATP addition and measured after 120 mins by Hotspot assay relative to control
MV4-11 [2] = assay: Induction of apoptosis in human MV4-11 cells assessed as necrotic cells at 1 uM after 24 hrs by Annexin V-FITC/propidium iodide staining based flow cytometric analysis (reference value: 0%); format: functional
MV4-11 [3] = assay: Induction of apoptosis in human MV4-11 cells assessed as necrotic cells at 0.5 uM after 24 hrs by Annexin V-FITC/propidium iodide staining based flow cytometric analysis (reference value: 0%); format: functional
K562 = assay: Growth inhibition of FLT3 null human K562 cells at 10 uM after 72 hrs by CellTiter-Glo assay relative to control; format: functional; settings: K562, 72 h, read-out: GI
[4] = target: Insulin-like growth factor 1 receptor (Homo sapiens) (UniProt P08069); assay: Inhibition of human IGF1R assessed as residual activity at 10 uM using KKKSPGEYVNIEFG as substrate preincubated for 20 mins followed by [gamma-33P]-ATP addition and measured after 120 mins by Hotspot assay relative to control
Chain of Insulin-like growth factor 1 receptor (Homo sapiens) (P08069 31-736 limits assumed): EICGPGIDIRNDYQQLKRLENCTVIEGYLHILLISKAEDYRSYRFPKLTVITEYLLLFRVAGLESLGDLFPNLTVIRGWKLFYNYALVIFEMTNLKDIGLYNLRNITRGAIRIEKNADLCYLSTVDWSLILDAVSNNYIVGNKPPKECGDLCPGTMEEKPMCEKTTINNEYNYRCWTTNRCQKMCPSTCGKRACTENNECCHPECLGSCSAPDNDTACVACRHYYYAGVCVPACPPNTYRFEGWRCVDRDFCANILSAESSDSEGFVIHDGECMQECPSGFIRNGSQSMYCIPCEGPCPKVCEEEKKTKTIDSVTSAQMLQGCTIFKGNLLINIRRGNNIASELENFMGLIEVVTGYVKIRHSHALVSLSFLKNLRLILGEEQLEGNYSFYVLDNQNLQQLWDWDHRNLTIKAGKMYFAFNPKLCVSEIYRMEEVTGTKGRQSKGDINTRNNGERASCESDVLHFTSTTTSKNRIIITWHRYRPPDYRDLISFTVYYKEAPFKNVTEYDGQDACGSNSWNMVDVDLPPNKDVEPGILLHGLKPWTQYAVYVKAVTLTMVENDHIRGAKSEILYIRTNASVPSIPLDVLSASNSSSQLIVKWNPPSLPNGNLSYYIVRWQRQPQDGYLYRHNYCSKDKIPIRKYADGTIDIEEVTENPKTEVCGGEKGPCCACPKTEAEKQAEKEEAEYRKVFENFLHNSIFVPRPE
Chain of Insulin-like growth factor 1 receptor (Homo sapiens) (P08069 741-1367 limits assumed): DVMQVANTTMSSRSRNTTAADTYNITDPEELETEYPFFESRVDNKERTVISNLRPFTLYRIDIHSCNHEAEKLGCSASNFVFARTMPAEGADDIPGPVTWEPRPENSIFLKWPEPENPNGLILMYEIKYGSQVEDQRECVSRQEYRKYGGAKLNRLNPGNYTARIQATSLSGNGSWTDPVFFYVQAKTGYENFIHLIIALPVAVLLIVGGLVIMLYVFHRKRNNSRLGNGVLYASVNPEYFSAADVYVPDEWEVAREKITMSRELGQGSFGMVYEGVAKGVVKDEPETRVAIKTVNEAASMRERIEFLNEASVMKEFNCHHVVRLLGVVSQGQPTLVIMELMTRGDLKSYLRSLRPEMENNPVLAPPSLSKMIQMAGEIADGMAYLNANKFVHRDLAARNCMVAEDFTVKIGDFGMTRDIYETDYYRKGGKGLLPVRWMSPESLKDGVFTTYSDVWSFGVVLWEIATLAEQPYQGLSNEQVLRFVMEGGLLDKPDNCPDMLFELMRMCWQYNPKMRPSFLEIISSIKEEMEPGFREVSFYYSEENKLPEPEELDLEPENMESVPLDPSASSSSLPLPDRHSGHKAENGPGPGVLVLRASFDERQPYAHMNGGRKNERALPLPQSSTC

[5] = target: Tyrosine-protein kinase ABL1 (Homo sapiens, UniProt P00519, F317L); assay: Binding affinity to human non-phosphorylated ABL1 F317L mutant (S229 to K512 residues) expressed in mammalian expression system after 60 mins by Kinomescan method
[6] = Intrinsic clearance in human liver microsomes assessed per mg protein at 1 uM after 5 to 60 mins in presence of NADPH by LC-MS/MS analysis; format: ADME, Microsome; settings: read-out: CLH
[7] = target: Serine/threonine-protein kinase Chk1 (Homo sapiens, UniProt O14757); assay: Inhibition of human CHK1 using KKKVSRSGLYRSPSMPENLNRPR as substrate preincubated for 20 mins followed by [gamma-33P]-ATP addition and measured after 120 mins by Hotspot assay
Chain of Serine/threonine-protein kinase Chk1 (O14757 whole entry, the tested form may be a part): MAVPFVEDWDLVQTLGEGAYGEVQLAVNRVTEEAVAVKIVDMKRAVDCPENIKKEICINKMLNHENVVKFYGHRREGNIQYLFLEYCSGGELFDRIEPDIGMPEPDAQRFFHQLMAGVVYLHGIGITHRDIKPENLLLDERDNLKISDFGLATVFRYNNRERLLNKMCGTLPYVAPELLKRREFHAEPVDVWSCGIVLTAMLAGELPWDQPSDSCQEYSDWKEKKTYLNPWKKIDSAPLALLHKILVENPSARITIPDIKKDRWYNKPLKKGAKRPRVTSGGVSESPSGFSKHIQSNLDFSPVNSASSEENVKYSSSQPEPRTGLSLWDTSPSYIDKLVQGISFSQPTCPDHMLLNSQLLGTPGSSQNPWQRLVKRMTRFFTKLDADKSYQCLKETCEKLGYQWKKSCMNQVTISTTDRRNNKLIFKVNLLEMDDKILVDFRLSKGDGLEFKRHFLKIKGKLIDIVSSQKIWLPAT

[8] = target: Tyrosine-protein kinase ABL1 (Homo sapiens, UniProt P00519, H396P); assay: Binding affinity to human phosphorylated ABL1 H396P mutant (S229 to K512 residues) expressed in mammalian expression system after 60 mins by Kinomescan method
[9] = target: Inhibitor of nuclear factor kappa-B kinase subunit alpha (Homo sapiens) (UniProt O15111); assay: Inhibition of human IKKalpha assessed as residual activity at 10 uM using KKKKERLLDDRHDSGLDSMKDEE as substrate preincubated for 20 mins followed by [gamma-33P]-ATP addition and measured after 120 mins by Hotspot assay relative to control
[10] = target: Fibroblast growth factor receptor 1 (Homo sapiens, UniProt P11362); assay: Inhibition of human FGFR1 using KKKSPGEYVNIEFG as substrate preincubated for 20 mins followed by [gamma-33P]-ATP addition and measured after 120 mins by Hotspot assay
Chain of Fibroblast growth factor receptor 1 (P11362 whole entry): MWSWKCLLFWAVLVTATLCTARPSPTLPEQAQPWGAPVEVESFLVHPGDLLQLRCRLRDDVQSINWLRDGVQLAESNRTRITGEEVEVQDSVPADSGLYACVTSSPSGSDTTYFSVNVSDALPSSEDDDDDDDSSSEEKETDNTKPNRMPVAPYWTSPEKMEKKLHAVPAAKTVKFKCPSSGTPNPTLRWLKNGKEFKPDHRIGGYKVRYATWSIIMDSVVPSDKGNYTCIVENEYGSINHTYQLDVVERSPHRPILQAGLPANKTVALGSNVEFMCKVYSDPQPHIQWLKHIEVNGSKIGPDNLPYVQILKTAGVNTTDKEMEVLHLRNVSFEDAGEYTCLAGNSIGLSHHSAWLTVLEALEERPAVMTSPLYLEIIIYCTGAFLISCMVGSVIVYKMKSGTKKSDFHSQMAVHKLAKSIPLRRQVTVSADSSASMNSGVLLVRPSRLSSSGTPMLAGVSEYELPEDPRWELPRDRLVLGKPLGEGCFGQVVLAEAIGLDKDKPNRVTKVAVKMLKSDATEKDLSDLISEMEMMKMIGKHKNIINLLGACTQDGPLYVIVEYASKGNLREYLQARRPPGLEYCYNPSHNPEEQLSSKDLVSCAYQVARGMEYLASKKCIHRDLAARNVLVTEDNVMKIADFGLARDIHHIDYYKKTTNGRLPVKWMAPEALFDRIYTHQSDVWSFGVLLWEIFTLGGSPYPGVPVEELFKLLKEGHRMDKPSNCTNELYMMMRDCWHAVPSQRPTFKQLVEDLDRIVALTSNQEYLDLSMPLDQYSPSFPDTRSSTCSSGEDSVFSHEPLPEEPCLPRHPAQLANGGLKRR

[11] = target: Mitogen-activated protein kinase 1 (Homo sapiens) (UniProt P28482); assay: Inhibition of human ERK2 assessed as residual activity at 10 uM using MBP as substrate preincubated for 20 mins followed by [gamma-33P]-ATP addition and measured after 120 mins by Hotspot assay relative to control
Chain of Mitogen-activated protein kinase 1 (Homo sapiens) (P28482 whole entry): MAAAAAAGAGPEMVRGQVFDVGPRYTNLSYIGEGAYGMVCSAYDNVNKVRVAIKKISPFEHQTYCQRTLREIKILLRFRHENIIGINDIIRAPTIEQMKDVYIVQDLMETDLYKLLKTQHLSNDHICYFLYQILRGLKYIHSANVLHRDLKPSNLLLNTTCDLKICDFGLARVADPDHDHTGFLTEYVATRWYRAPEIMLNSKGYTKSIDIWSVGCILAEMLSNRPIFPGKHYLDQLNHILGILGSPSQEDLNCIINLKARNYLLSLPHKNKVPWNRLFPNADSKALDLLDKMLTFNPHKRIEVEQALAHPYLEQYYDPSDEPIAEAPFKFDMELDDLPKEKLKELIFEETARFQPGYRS

[12] = target: Cyclin-dependent kinase 7/ cyclin H (Homo sapiens, UniProt P50613); assay: Inhibition of human CDK7/cyclin-H using MBP as substrate preincubated for 20 mins followed by [gamma-33P]-ATP addition and measured after 120 mins by Hotspot assay; format: protein-complex assay
[13] = target: CDK2/Cyclin A2 (Homo sapiens) (UniProt P24941+P20248); assay: Inhibition of human CDK2/cyclin-A assessed as residual activity at 10 uM using histone H1 as substrate preincubated for 20 mins followed by [gamma-33P]-ATP addition and measured after 120 mins by Hotspot assay relative to control; format: protein-complex assay
[14] = target: Macrophage colony-stimulating factor 1 receptor (Homo sapiens, UniProt P07333); assay: Binding affinity to wild-type human partial length autoinhibited CSF1R (Y538 to S939 residues) expressed in mammalian expression system after 60 mins by Kinomescan method
Chain of Macrophage colony-stimulating factor 1 receptor (P07333 whole entry, the tested form may be a part): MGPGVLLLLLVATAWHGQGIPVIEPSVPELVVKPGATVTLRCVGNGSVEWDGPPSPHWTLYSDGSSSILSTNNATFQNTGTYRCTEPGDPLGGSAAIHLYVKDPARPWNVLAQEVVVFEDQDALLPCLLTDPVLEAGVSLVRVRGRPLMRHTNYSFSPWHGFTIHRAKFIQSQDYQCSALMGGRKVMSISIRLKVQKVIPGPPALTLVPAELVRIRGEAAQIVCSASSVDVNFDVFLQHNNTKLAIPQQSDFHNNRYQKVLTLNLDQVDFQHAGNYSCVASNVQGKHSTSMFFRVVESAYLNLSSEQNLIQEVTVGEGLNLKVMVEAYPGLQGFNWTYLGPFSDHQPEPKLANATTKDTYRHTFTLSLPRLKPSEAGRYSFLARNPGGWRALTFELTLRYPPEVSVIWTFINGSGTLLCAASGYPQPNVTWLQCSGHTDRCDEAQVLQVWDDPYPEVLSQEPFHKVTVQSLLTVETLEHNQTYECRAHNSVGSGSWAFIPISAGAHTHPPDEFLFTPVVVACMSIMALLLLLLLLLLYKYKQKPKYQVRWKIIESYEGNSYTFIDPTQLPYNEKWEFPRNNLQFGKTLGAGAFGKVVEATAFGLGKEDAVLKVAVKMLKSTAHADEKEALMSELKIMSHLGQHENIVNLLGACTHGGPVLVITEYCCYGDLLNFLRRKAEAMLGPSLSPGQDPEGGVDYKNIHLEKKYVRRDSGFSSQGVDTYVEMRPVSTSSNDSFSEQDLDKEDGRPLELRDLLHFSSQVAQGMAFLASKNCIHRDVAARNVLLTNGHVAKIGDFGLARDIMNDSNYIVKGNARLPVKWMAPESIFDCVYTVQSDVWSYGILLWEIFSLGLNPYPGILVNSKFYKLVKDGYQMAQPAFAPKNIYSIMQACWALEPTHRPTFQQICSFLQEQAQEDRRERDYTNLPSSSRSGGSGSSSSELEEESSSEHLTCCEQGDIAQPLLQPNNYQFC

[15] = target: Serine/threonine-protein kinase Nek2 (Homo sapiens, UniProt P51955); assay: Inhibition of human NEK2 using MBP as substrate preincubated for 20 mins followed by [gamma-33P]-ATP addition and measured after 120 mins by Hotspot assay
Chain of Serine/threonine-protein kinase Nek2 (P51955 whole entry): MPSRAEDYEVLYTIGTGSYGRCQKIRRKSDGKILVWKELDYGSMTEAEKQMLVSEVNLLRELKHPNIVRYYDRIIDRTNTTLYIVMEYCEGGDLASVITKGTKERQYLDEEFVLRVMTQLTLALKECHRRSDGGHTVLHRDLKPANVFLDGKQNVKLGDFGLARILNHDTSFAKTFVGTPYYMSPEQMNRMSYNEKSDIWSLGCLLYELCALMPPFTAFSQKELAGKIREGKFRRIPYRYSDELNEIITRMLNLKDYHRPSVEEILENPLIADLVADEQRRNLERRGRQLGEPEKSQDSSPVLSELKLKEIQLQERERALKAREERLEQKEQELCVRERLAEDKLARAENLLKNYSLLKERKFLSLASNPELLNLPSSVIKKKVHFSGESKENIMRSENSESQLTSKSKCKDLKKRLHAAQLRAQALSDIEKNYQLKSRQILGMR

MV4-11 [16] = assay: Induction of apoptosis in human MV4-11 cells assessed as late apoptotic cells at 1 uM after 24 hrs by Annexin V-FITC/propidium iodide staining based flow cytometric analysis (reference value: 1.42%); format: functional
RS4-11 = assay: Growth inhibition of human RS4:11 cells harboring WT FLT3 at 10 uM after 72 hrs by CellTiter-Glo assay relative to control; format: functional; settings: RS4-11, 72 h, read-out: GI
MV4-11 [17] = assay: Induction of apoptosis in human MV4-11 cells assessed as necrotic cells at 0.02 uM after 24 hrs by Annexin V-FITC/propidium iodide staining based flow cytometric analysis (reference value: 0%); format: functional
MV4-11 [18] = assay: Induction of apoptosis in human MV4-11 cells assessed as early apoptotic cells at 0.1 uM after 24 hrs by Annexin V-FITC/propidium iodide staining based flow cytometric analysis (reference value: 3.39%); format: functional
[19] = target: Glycogen synthase kinase-3 beta (Homo sapiens) (UniProt P49841); assay: Inhibition of human GSK3B assessed as residual activity at 10 uM using YRRAAVPPSPSLSRHSSPHQ(pS)EDEEE as substrate preincubated for 20 mins followed by [gamma-33P]-ATP addition and measured after 120 mins by Hotspot assay relative to control
Chain of Glycogen synthase kinase-3 beta (Homo sapiens) (P49841 whole entry, looked up, the tested form may be a part): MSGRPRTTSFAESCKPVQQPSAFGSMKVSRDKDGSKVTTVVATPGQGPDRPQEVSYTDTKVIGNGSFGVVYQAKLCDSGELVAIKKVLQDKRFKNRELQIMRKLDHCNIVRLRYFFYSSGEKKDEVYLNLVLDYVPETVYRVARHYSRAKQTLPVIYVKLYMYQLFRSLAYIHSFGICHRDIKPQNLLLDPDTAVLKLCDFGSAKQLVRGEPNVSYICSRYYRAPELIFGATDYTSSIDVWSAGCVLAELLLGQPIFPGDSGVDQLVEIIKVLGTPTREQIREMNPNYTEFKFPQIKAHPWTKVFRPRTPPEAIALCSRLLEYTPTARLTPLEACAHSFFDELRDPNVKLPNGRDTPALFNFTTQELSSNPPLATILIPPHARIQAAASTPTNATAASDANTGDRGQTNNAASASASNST

[20] = target: Tyrosine-protein kinase ABL1 (Homo sapiens, UniProt P00519, F317I); assay: Binding affinity to human phosphorylated ABL1 F317I mutant (S229 to K512 residues) expressed in mammalian expression system after 60 mins by Kinomescan method
MCF7 = assay: Growth inhibition of human MCF7 cells at 10 uM after 72 hrs by CellTiter-Glo assay relative to control; format: functional; settings: MCF7, 72 h, read-out: GI
MV4-11 [21] = assay: Induction of apoptosis in human MV4-11 cells assessed as viable cells at 0.02 uM after 24 hrs by Annexin V-FITC/propidium iodide staining based flow cytometric analysis (reference value: 95.19%); format: functional; settings: MV4-11, 24 h, read-out: Activity
[22] = target: Platelet-derived growth factor receptor alpha (Homo sapiens, UniProt P16234); assay: Inhibition of human PDGFRalpha assessed as residual activity at 10 uM using poly[Glu:Tyr] (4:1) as substrate preincubated for 20 mins followed by [gamma-33P]-ATP addition and measured after 120 mins by Hotspot assay relative to control
MV4-11 [23] = assay: Induction of apoptosis in human MV4-11 cells assessed as late apoptotic cells at 0.05 uM after 24 hrs by Annexin V-FITC/propidium iodide staining based flow cytometric analysis (reference value: 1.42%); format: functional

Compound: CN1CCC(Nc2ccc(C(=O)Nc3cc(-c4cc(C#N)cs4)n[nH]3)cc2)CC1
- Activity [1]: 34%
- Activity (MV4-11 [2]): 6.35%
- Activity (MV4-11 [3]): 4.89%
- inhibition of growth at 10 µM (K562): 1.3%
- Activity [4]: 94.8%
- Kd [5]: 6900 nM
- microsomal CLint at 1 µM [6]: 22.4 µL/min/mg
- IC50 ([7]; read-out: IC50): 1530 nM
- IC50 ([7]; read-out: pIC50 (converted)): 1580 nM
- Kd [8]: 390 nM
- Activity [9]: 86.5%
- IC50 [10]: 962 nM
- Activity [11]: 102%
- IC50 [12]: 7910 nM
- Activity [13]: 66.8%
- Kd [14]: 84 nM
- IC50 [15]: 2090 nM
- Activity (MV4-11 [16]): 27.75%
- inhibition of growth at 10 µM (RS4-11): 1.33%
- Activity (MV4-11 [17]): 3.01%
- Activity (MV4-11 [18]): 24.27%
- Activity [19]: 72.8%
- Kd [20]: > 10000 nM
- inhibition of growth at 10 µM (MCF7): 0.83%
- viability at 0.02 µM (MV4-11 [21]): 68.6%
- Activity [22]: 30.2%
- Activity (MV4-11 [23]): 14.8%
